Experimental data as given in US10849902B2, “Medicament for treating heart failure” (TAKEDA PHARMACEUTICAL COMPANY LIMITED, priority 2015, dated 2020).

Legend:
[1] = test system: transverse aortic constriction (TAC) model; conditions: Non patent literature 5; cited from earlier work
[2] = drug administered after the cardiac load is given; Non patent literature 6; cited from earlier work
[3] = test system: CSQ-Tg mice; assay: Effect on survival rate of heart failure model animals (CSQ-Tg mice); assay type: in vivo; conditions: CSQ-Tg female mice, 5 weeks old, 30 mg/kg body weight/day oral QD for 30 days, n=30; log-rank test p<0.001 vs vehicle
Experimental: (§1) Calsequestrin (CSQ) cardiac specific transgenic mice (CSQ-Tg mice), which were reported in Larry R. Jones et al., J. Clin. Invest. 101: 1385-1393, 1998, were obtained from University of Pennsylvania, breeded in our company and put in use. In tests, using male and female mice, administration of a medicament was started on and after the mice reached 5 weeks old. The animals were raised in the conditions: room temperature: 20 to 26° c., humidity: 40 to 70%, illumination time: 12 hours/day (7:00-19:00) by giving a solid feed (CE-2, manufactured by CLEA Japan, Inc.) and tap water. In the CSQ-Tg mice, as already reported, Ca^2+ intracellular release was suppressed; myocardial contraction declined and cardiac output decreased. Cardiac hypertrophy and heart failure developed.
In this example, effect of compound A′ on survival rate of heart failure model animals was examined.
Compound A′ was orally administered to CSQ-Tg female mice (n=30) of 5 weeks old in a dosage of 30 mg/kg body weight/day once per day (QD) for 30 days. To negative control (vehicle administration group) mice, a 0.5% aqueous methylcellulose solution was administered (n=30).

[4] = test system: CSQ-Tg mice; assay: Atrial weight reduction effect in heart failure model animal (CSQ-Tg mice); assay type: in vivo; conditions: CSQ-Tg male mice, 5 weeks old, 30 mg/kg body weight/day oral QD for 14 days, n=7; p<0.05 vs vehicle (t-test)
Experimental: as §1
In this example, using CSQ-Tg mice as a heart failure model animal, the atrial weight reduction effect of compound A′ was evaluated.
Compound A′ was suspended (10 mL/kg) in a 0.5% aqueous methylcellulose solution (hereinafter in Examples, sometimes referred to as a “vehicle”) and orally administered to CSQ-Tg male mice of 5 weeks old with heart failure in a dosage of 30 mg/kg body weight/day once per day (QD) for 14 days (n=7). To negative control (vehicle administration group) mice, a 0.5% aqueous methylcellulose solution was administered (n=9). Thereafter, the atrial weight of the mice was measured.

[5] = test system: CSQ-Tg mice; assay: Improvement effect on left ventricular hypertrophy and lung weight increase in CSQ-Tg mice; assay type: in vivo; conditions: CSQ-Tg female mice, 5 weeks old, 30 mg/kg body weight/day oral QD for 14 days, n=10; p<0.05 vs vehicle (t-test)
Experimental: as §1
In this example, the effect of compound A′ in improving left ventricular hypertrophy and lung weight increase caused by heart failure was examined.
Compound A′ was suspended in a 0.5% aqueous methylcellulose solution (10 mL/kg) and orally administered to CSQ-Tg female mice of 5 weeks old with heart failure in a dosage of 30 mg/kg body weight/day once per day (QD) for 14 days (n=10). […] Thereafter, lung weight (Lung), left-ventricle weight (LV) and body weight (BW) were individually measured and were standardized with the BW.

Compound	Cardiac hypertrophy [1]	Cardiac hypofunction [2]	Survival rate (Kaplan-Meier, FIG. 1) [3]	Left atrial weight, average value [4]	LV/BW (left-ventricle weight standardized with body weight), average value ± standard deviation [5]	Lung/BW (lung weight standardized with body weight), average value ± standard deviation [5]
C[C@@H](N[C@H]1CCCC[C@@H]1NC(=O)c1ccc(Cl)cc1)c1cccc2ccccc12 [Calhex231]	cardiac hypertrophy is improved	cardiac hypofunction is not improved	–	–	–	–
CCc1ccc(C(CC)(CC)NC(=O)c2c(C)nn3c2N[C@@H](c2ccccc2)CC3(C)C)cc1 [Compound A′]	–	–	significantly improved	8.4 mg	7.9 ± 1.0	6.8 ± 1.3
